Some results are limits rather than exact numbers.

The target of assay [1] is KRAS G12C (Homo sapiens (Human), UniProt P01116, C118A/G12C). The assay can be described thus: 2 h coupled exchange assay. The following applies: Avg 2 h Coupled exchange IC50, 2 h compound pre-incubation. The class given is biochemical. The procedure: The term “2 h coupled exchange assay” or “20 h coupled exchange assay” as used herein refers to the assay described in the Section entitled “BIOLOGICAL EVALUATION.”

The test system of assay [2] is A549 (human lung carcinoma) cells. Nature of the assay: Cell Viability Assay (CellTiter-Glo), A549. The class given is cell-based. Conditions: Homo sapiens, A549, 72 h. The method in brief:
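MIA PaCa-2 or A549 cells in RPMI 1640 with 10% FBS were seeded at 1.67E+04 cells/mL and incubated overnight. Serially diluted compound was then added for 72 h at 37° C, 5% CO2. Viability read by CellTiter-Glo luminescence, normalized to DMSO, with IC50 from a 4-parameter logistic fit.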

Assay [3] relates to MIA PaCa-2 (human pancreatic carcinoma) cells. Nature of the assay: Cell Viability Assay (CellTiter-Glo), MIA PaCa-2. The following applies: Homo sapiens, MIA PaCa-2, 72 h. The class given is cell-based. The procedure: Serially-diluted compound or DMSO was added to the cells, and plates were incubated at 37° C., 5% CO2 for 72 h. Cell viability was measured using a CellTiter-Glo® Luminescent Cell Viability Assay kit (Promega) according to the manufacturer's protocol. The luminescence signal of treated samples was normalized to DMSO control, and data were analyzed using a 4-parameter logistic model to calculate IC50 values.
On the technique in general: In ATP-based viability assays light output follows the ATP content of the culture.

Chain of KRAS G12C (P01116 other isoform, or with tags, fused parts or gaps G12C/C118A): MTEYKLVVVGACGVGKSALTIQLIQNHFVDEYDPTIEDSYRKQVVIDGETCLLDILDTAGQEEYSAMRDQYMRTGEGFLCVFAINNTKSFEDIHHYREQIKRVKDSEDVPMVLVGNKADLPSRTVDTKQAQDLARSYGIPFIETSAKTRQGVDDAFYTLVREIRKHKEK

The term IC50 denotes the concentration that gives 50% inhibition. Read a high IC50 as weaker potency in that assay. On to `C=CC(=O)N1CC2(CCN(c3nc4c(c(-c5cc(O)ccc5Cl)c3C#N)CCN(c3scnc3C)C4)C2)C1` [Example 21-13, 4-(2-chloro-5-hydroxyphenyl)-7-(4-methyl-1,3-thiazol-5-yl)-2-(2-(2-propenoyl)-2,6-diazaspiro[3.4]octan-6-yl)-5,6,7,8-tetrahydro-1,7-naphthyridine-3-carbonitrile], for which the half-inhibitory concentration (IC50) in assay [1] was 14 nM; in assay [2], greater than 5 µM; in assay [3] it was 1070 nM.

In the case of `C=CC(=O)N1CC2(CCN(c3nc4c(c(-c5cccc(F)c5O)c3C#N)CCN(c3scnc3C)C4)C2)C1` [Example 21-14, 4-(3-fluoro-2-hydroxyphenyl)-7-(4-methyl-1,3-thiazol-5-yl)-2-(2-(2-propenoyl)-2,6-diazaspiro[3.4]octan-6-yl)-5,6,7,8-tetrahydro-1,7-naphthyridine-3-carbonitrile], the IC50 is 35 nM in assay [1], greater than 5 µM in assay [2] and greater than 5000 nM in assay [3].

For `C=CC(=O)N1CC2(CCN(c3nc4c(c(-c5cc(O)ccc5F)c3C#N)CCN(C(C)C)C4)C2)C1` [Example 21-15, 4-(2-fluoro-5-hydroxyphenyl)-7-(2-propanyl)-2-(2-(2-propenoyl)-2,6-diazaspiro[3.4]octan-6-yl)-5,6,7,8-tetrahydro-1,7-naphthyridine-3-carbonitrile], the values for the IC50 in assay [1], in assay [2] and in assay [3] were 220 nM, greater than 5 µM and greater than 5000 nM, respectively.

Consider `C=CC(=O)N1CC2(CCN(c3nc4c(c(-c5ccc(F)cc5F)c3C#N)CCN(c3scnc3C)C4)[C@H]2C)C1` [Example 21-16, 4-(2,4-difluorophenyl)-2-((5S)-5-methyl-2-(2-propenoyl)-2,6-diazaspiro[3.4]octan-6-yl)-7-(4-methyl-1,3-thiazol-5-yl)-5,6,7,8-tetrahydro-1,7-naphthyridine-3-carbonitrile], for which the 50% inhibitory concentration (IC50) came out at 108 nM in assay [1], 5.11 µM in assay [2] and 931 nM in assay [3].

`C=CC(=O)N1CC2(CCN(c3nc4c(c(-c5ccc(F)cc5F)c3C#N)CCN(c3scnc3C)C4)[C@@H]2C)C1` [Example 21-17, 4-(2,4-difluorophenyl)-2-((5R)-5-methyl-2-(2-propenoyl)-2,6-diazaspiro[3.4]octan-6-yl)-7-(4-methyl-1,3-thiazol-5-yl)-5,6,7,8-tetrahydro-1,7-naphthyridine-3-carbonitrile]: the concentration for half-maximal inhibition (IC50) turned out to be 136 nM in assay [1], 9.84 µM in assay [2] and 337 nM in assay [3].

With `C=CC(=O)N1CC2(CCN(c3nc4c(c(-c5ccc(F)cc5F)c3C#N)CCN(C(C)C)C4)[C@H]2C)C1` [Example 21-18, 4-(2,4-difluorophenyl)-2-((5S)-5-methyl-2-(2-propenoyl)-2,6-diazaspiro[3.4]octan-6-yl)-7-(2-propanyl)-5,6,7,8-tetrahydro-1,7-naphthyridine-3-carbonitrile], the half-maximal inhibitory concentration (IC50) in assay [1] stood at 853 nM; in assay [2] it was 10.2 µM; in assay [3], 2820 nM.

As to `C=CC(=O)N1CC2(CCN(c3nc4c(c(-c5cc(O)ccc5F)c3C#N)CCN(c3scnc3C)C4)C2)C1` [Example 21-19, 4-(2-fluoro-5-hydroxyphenyl)-7-(4-methyl-1,3-thiazol-5-yl)-2-(2-(2-propenoyl)-2.6-diazaspiro[3.4]octan-6-yl)-5,6,7,8-tetrahydro-1,7-naphthyridine-3-carbonitrile], the IC50 in assay [1] was 35 nM; in assay [2], greater than 5 µM; in assay [3], 1170 nM.

Take `C=CC(=O)N1CC2(CCN(c3nc4c(c(-c5ccccc5F)c3C#N)CCN(c3ncc(C)s3)C4)C2)C1` [Example 21-20, 4-(2-fluorophenyl)-7-(5-methyl-1,3-thiazol-2-yl)-2-(2-(2-propenoyl)-2.6-diazaspiro[3.4]octan-6-yl)-5,6,7,8-tetrahydro-1,7-naphthyridine-3-carbonitrile]: the figures for the half-maximal inhibitory concentration (IC50) in assay [1], in assay [2] and in assay [3] were 973 nM, 9.88 µM and 5250 nM, respectively.
